From ChEMBL document CHEMBL1159105, “Predictive screening model for potential vector-mediated transport of cationic substrates at the blood-brain barrier choline transporter” (Bioorg Med Chem Lett, 2010)

Columns and labels:
[1] = species: Rattus norvegicus; assay: Inhibition of blood brain barrier choline transporter-mediated [3H]choline uptake in Fischer-344 rat brain at 250 uM by perfusion technique; assay type: tissue-based
[2] = Inhibition of nAChR-mediated nicotine-induced [3H]dopamine release

| Structure (SMILES) | logKi [1] | IC50 [2] [nM] |
| --- | --- | --- |
| Cc1cc[n+](CCCCCCCCCCCC[n+]2ccc(C)cc2)cc1 | 1.93 | – |
| c1cc2c([n+](CCCc3ccc(-c4ccc(CCC[n+]5cccc6c5CCCC6)cc4)cc3)c1)CCCC2 | 1.37 | – |
| CN1CCCC1c1ccc[n+](CCCc2ccc(-c3ccc(CCC[n+]4cccc(C5CCCN5C)c4)cc3)cc2)c1 (stereo unspecified) | 1.73 | – |
| Cc1cc(C)c[n+](CCCCc2ccc(CCCC[n+]3cc(C)cc(C)c3)cc2)c1 | 2.56 | – |
| Cc1ccc[n+](CCC#Cc2ccc(C#CCC[n+]3cccc(C)c3)cc2)c1 | 0.595 | – |
| CCCCC#CCCCCCC[n+]1ccc(C)cc1 | 2.58 | – |
| CCCCc1ccc(CCCC[n+]2ccc(C)cc2)cc1 | 2.69 | – |
| Cc1cc(C)c[n+](CCCCCCCCCCC[n+]2cc(C)cc(C)c2)c1 | 1.81 | – |
| CCCCC#CCCCCCC[n+]1cccc(C2CCCN2C)c1 (stereo unspecified) | 1.92 | – |
| C1#Cc2ccc[n+](c2)CCCCCCCCCCC[n+]2cccc(c2)C#CCCCCCCCC1 | 1.18 | – |
| Cc1cccc[n+]1CCCc1ccc(-c2ccc(CCC[n+]3ccccc3C)cc2)cc1 | 2 | – |
| C1#Cc2ccc[n+](c2)CCCCCCCCC[n+]2cccc(c2)C#CCCCCCCCC1 | 0.146 | – |
| Cc1cc(C)c[n+](CCC#Cc2ccc(C#CCC[n+]3cc(C)cc(C)c3)cc2)c1 | 0.867 | – |
| Cc1cc[n+](CCC#Cc2ccc(C#CCC[n+]3ccc(C)c(C)c3)cc2)cc1C | 0.924 | – |
| Cc1cc[n+](CCCc2ccc(-c3ccc(CCC[n+]4ccc(C)cc4)cc3)cc2)cc1 | 1.63 | – |
| c1ccc2c(c1)ccc[n+]2CCCCCC[n+]1cccc2ccccc21 | 1.26 | – |
| C1#Cc2ccc[n+](c2)CCCCCC[n+]2cccc(c2)C#CCCCCCCCC1 | 1.53 | – |
| Cc1cc[n+](CCC#Cc2ccc(C#CCC[n+]3ccc(C)cc3)cc2)cc1 | 0.929 | – |
| Cc1cc[n+](CCCc2ccc(-c3ccc(CCC[n+]4ccc(C)c(C)c4)cc3)cc2)cc1C | 1.75 | – |
| CC[N+](CC)(CC)CCCCCCCCCCCC[n+]1cccc(C)c1 | 1.34 | – |
| Cc1ccc[n+](CCCCCCCCCCCC[n+]2cccc(C)c2)c1 | – | 2 |
| C(#Cc1ccc(C#CCC[n+]2ccc3c(c2)CCCC3)cc1)CC[n+]1ccc2c(c1)CCCC2 | 0.732 | – |
| OCCCc1ccc[n+](CCCc2ccc(-c3ccc(CCC[n+]4cccc(CCCO)c4)cc3)cc2)c1 | 1.86 | – |
| Cc1cc[n+](C#Cc2ccc(-c3ccc(C#C[n+]4ccc(C)c(C)c4)cc3)cc2)cc1C | 1.98 | – |
| c1cc(-c2ccc(CCC[n+]3ccc4c(c3)CCCC4)cc2)ccc1CCC[n+]1ccc2c(c1)CCCC2 | 1.2 | – |
| OCCCc1ccc[n+](CCCc2ccc(CCC[n+]3cccc(CCCO)c3)cc2)c1 | 2.09 | – |
